“Also recorded” adds a separate entry of the source.
Key:
[1] = tested on: BE(2)-C cells; experiment: Flow cytometric analysis of γH2A.X staining (DNA double-strand breaks); assay type: cell-based, human; settings: 24 h, tubastatin A 7.5 µM, vacuolin-1 10 µM; for DSBs (γH2A.X), treatment alone in the absence of doxorubicin: verapamil 10 µM
Procedure: Cells were dissociated from dishes using non-enzymatic cell dissociation reagent for five minutes. Cells were counted using a ViCell XR automatic cell counter (Beckmann Coulter) and 2.5 ∗ 10^5 cells were transferred into a pre-cooled 96-well round bottom plate (TPP92097). […] Cells were washed three times in FACS buffer (5% FBS in PBS) after each antibody incubation step. For evaluation of DNA double-strand breaks, cells were detached from dishes using trypsin, counted using a ViCell XR automatic cell counter (Beckmann Coulter) and transferred into a pre-cooled 96-well round bottom plate (4 ∗ 10^6 cells/well). Cells were fixed and permeabilized using the eBioscience^TM Foxp3/Transcription Factor Staining Buffer Set (Thermo Fisher Scientific). […] Cells were washed three times in 1× permeabilization buffer after each antibody incubation step and fluorescence was quantified on a BD FACSCanto II platform.

[2] = tested on: BE(2)-C cells; experiment: Pulse-chase analysis of doxorubicin secretion/retention; assay type: cell-based, human; settings: 12 h pre-treatment, 1 µg/ml doxorubicin 3 h, washout, relative to t0
Procedure: To test whether HDAC10 inhibition prolonged the retention of doxorubicin, we used a pulse-chase approach in which BE(2)-C cells were pre-treated over night with HDAC6/10 inhibitors and then loaded with high concentrations of doxorubicin for 3 h (1 µg/ml). After doxorubicin washout, HDAC6/10 or HDAC6 inhibitors were re-added (t0), and intracellular doxorubicin fluorescence was measured at t0, as well as 3 h (t3h) and 6 h (t6h) after doxorubicin removal (Fig. 5h–k). […] In summary, secretion of doxorubicin was slowed down in case of HDAC6/10 inhibition but not by specific HDAC6 inhibition alone.
(§1) For flow cytometric quantification of intracellular doxorubicin after HDAC6/10 inhibition, BE(2)-C, SK-N-AS, IMR-32, HAP1 wild type and HDAC10 knockout cells were seeded in 6-well dishes at a density of 1.5 ∗ 10^5 cells/well (BE(2)-C and SK-N-AS, HAP1) and 3 ∗ 10^5 cells/well (IMR-32). Cells were treated with 25 ng/ml, 50 ng/ml, 100 ng/ml or 1 µg/ml doxorubicin, respectively, for 3–48 h (see respective figure legend). Where indicated, cells were co-treated with HDAC6/10 or lysosomal inhibitors. In case of co-treatment with vacuolin-1, vacuolin-1 was directly added to cells under doxorubicin treatment 1 h or 24 h prior to analysis. Flow cytometric quantification of intracellular doxorubicin after HDAC6, HDAC10 or P-glycoprotein knockdown in BE(2)-C cells was performed 5 days (P-glycoprotein) or 6 days (HDAC6/10) after transfection with siRNA. To that end, cells were seeded 3–4 days after transfection into 6-well dishes at 1.5 ∗ 10^5 cells per well and treated with 100 ng/ml doxorubicin +/− HDAC6/10 and lysosomal inhibitors for the last 24 h. After doxorubicin treatment, BE(2)-C, SK-N-AS, IMR-32 and HAP1 cells were washed with ice-cold RPMI w/o phenol-red and detached using Trypsin/EDTA for 3 minutes at 37 °C. Cells were centrifuged, resuspended in RPMI w/o phenol red and doxorubicin fluorescence was quantified on a BD FACSCanto II platform using the PE filter setting.

[3] = tested on: BE(2)-C cells; experiment: Flow cytometric analysis of LysoTracker DND-99 staining (lysosomal accumulation); assay type: cell-based, human; settings: for lysosomal accumulation (LysoTracker staining): 24 h, bufexamac 30 µM, tubastatin A 7.5 µM, tubacin 7.5 µM, VPA 1 mM, vacuolin-1 10 µM
Procedure: Six days after siRNA transfection or 24 h after treatment with HDAC or lysosomal inhibitors, cells were stained for 1 h with 50 nM LysoTracker® Red DND-99 in medium under standard cell culture conditions. Cells were washed with ice-cold RPMI w/o phenol-red and detached using Trypsin/EDTA for 3 minutes at 37 °C. Cells were centrifuged, resuspended in RPMI w/o phenol red and LysoTracker® Red fluorescence was quantified on a BD FACSCanto II platform using the PE filter setting.

[4] = tested on: P-glycoprotein; experiment: Flow cytometric quantification of cell surface P-gp expression; assay type: cell-based, human; settings: BE(2)-C; 6 h tubastatin A 7.5 µM; vacuolin-1 10 µM 1 h
Procedure: (§2) Cells were dissociated from dishes using non-enzymatic cell dissociation reagent for five minutes. Cells were counted using a ViCell XR automatic cell counter (Beckmann Coulter) and 2.5 ∗ 10^5 cells were transferred into a pre-cooled 96-well round bottom plate (TPP92097). Cells were stained for 1.5–2 hours on ice with primary anti P-gp (Biozol ABA-AB00143-1.1), LAMP-1 (H4A3, DHSB) antibody or isotype control (DLN-05794, Dianova, […]) and for 1 hour with APC-labeled secondary antibody (Dianova 115-136-068). Cells were washed three times in FACS buffer (5% FBS in PBS) after each antibody incubation step. For evaluation of DNA double-strand breaks, cells were detached from dishes using trypsin, counted using a ViCell XR automatic cell counter (Beckmann Coulter) and transferred into a pre-cooled 96-well round bottom plate (4 ∗ 10^6 cells/well). Cells were fixed and permeabilized using the eBioscience^TM Foxp3/Transcription Factor Staining Buffer Set (Thermo Fisher Scientific). Cells were stained for 1.5 h with Phospho-Histone H2A.X (S139) primary antibody (CST #9718) and for 1 h in Alexa-488-labeled secondary antibody (ThermoFisher A-11008). Cells were washed three times in 1× permeabilization buffer after each antibody incubation step and fluorescence was quantified on a BD FACSCanto II platform.

[5] = tested on: proliferating human fibroblasts; experiment: Flow cytometric analysis of cellular doxorubicin fluorescence, fibroblasts; assay type: cell-based; settings: 100 ng/ml doxorubicin 48 h; tubastatin A 7.5 µM, vacuolin-1 10 µM, verapamil 10 µM
[6] = tested on: BE(2)-C cells; experiment: Flow cytometric analysis of cell surface LAMP-1 (lysosomal exocytosis); assay type: cell-based, human; settings: 6 h tubastatin A 7.5 µM, bufexamac 30 µM, tubacin 7.5 µM, vacuolin-1 10 µM 1 h
Procedure: as §2

[7] = tested on: BE(2)-C cells; experiment: Flow cytometric quantification of intracellular doxorubicin accumulation, BE(2)-C; assay type: cell-based, human; settings: for intracellular doxorubicin after co-treatment: 48 h, bufexamac 30 µM, tubastatin A 7.5 µM, tubacin 7.5 µM
Procedure: as §1

[8] = tested on: BE(2)-C cells; experiment: Cell viability, automated trypan blue exclusion, BE(2)-C; assay type: cell-based, human; settings: 100 ng/ml doxorubicin; for viability of BE(2)-C cells, single treatment: 7.5 µM tubastatin A or vacuolin-1 alone; for viability of BE(2)-C cells, combination with doxorubicin, 24 h, compared to doxorubicin alone: 10 µM verapamil or vacuolin-1
Procedure: Adherent cell lines were trypsinized and cells were pooled with corresponding supernatant, centrifuged and resuspended in 1.5 ml cell culture media. Cell viability was measured by automated trypan blue staining with the Vi-Cell XR Cell Viability Analyzer from Beckman Coulter (Krefeld, Germany).

[9] = tested on: BE(2)-C cells; experiment: Alkaline single cell gel electrophoresis assay (comet assay); assay type: cell-based, human; settings: 18 h, tubastatin A 7.5 µM or doxorubicin 100 ng/ml
Procedure: BE(2)-C cells were treated with the HDAC6/10 inhibitor tubastatin A alone or in combination with the genotoxic drug doxorubicin (100 ng/ml doxorubicin, 7.5 µM tubastatin) for 18 h. Untreated cell aliquots and cells irradiated with 5 Gy (^137Cs radiation source, dose rate of 1 Gy min^−1) were used as negative and positive controls, respectively. Cells were subsequently analyzed by the alkaline comet assay as previously described[68],[69] with some modifications. In brief, the cells were mixed with 0.7% low-melting temperature agarose (Biozym), plated on two-well slides (Trevigen), and subsequently lysed overnight. Single cell electrophoresis was performed at 4 °C. Analysis of DNA damage was accomplished by fluorescence microscopy using a fully automated cell scanning system Metafer-4 (Metasystems) as described in[70]. DNA damage was assessed as “Tail DNA in %”. Statistical evaluation of two differently treated cell aliquots was performed with the Mann Whitney test using GraphPad Prism version 5.04 for Windows.

[10] = tested on: HDAC6; experiment: Western blot analysis of tubulin K40 acetylation as a marker for HDAC6 inhibition; assay type: cell-based, human; settings: 24 h; bufexamac 30 µM, tubastatin A 7.5 µM, tubacin 7.5 µM
Procedure: Western blot analysis was performed as previously described. The following antibodies were used: anti-HDAC6 (sc-11420, Santa Cruz), anti-HDAC10 (H3413, Sigma), anti-acetylated histone H3 (06-911, Merck Millipore), anti-histone H3 (9715, Cell Signaling Technology, Cambridge UK), anti-LAMP-1 (H4A3, DHSB, Iowa City, IA, USA), anti-LAMP-2 (H4B4; Santa Cruz Biotechnology), anti-acetylated tubulin (6–11B-1; Sigma), anti-tubulin (2148, Cell Signaling Technology), anti P-glycoprotein (13978 S, Cell Signaling Technology) and anti-β-actin (clone AC-15; Sigma).

[11] = tested on: HDACs 1–3; experiment: Western blot analysis of histone H3 acetylation; assay type: cell-based, human; settings: 1 mM, 6 h
Procedure: Western blot analysis was performed as previously described. […] (b) Western blot analysis of histone H3 […] class IIb HDAC inhibitor tubastatin A, respectively. Numbers below blot indicate histone H3 acetylation normalized to total histone H3 expression and relative to DMSO treated control. Bands of indicated proteins were developed on the same blot. (c) Flow cytometric analysis of LysoTracker DND-99 staining in BE(2)-C cells 24h after treatment with class I HDAC inhibitor VPA and class IIb HDAC inhibitor tubastatin A. Statistical analyses were performed on non-normalized data using paired, two-tailed t-test (***p < 0.001; **0.001 ≤ p < 0.01; *0.01 ≤ p < 0.05). Error bars represent SEM. 3 (1 picture or pasted object on this page, not shown here)

## Ic1cccc(/C=N/Nc2nc(N3CCOCC3)nc(N(c3ccccc3)c3ccccc3)n2)c1 [vacuolin-1]
[1]; 100 ng/ml doxorubicin
  DSBs (γH2A.X), co-treatment with doxorubicin compared to doxorubicin alone: increased doxorubicin induced DSBs
[1]
  DSBs (γH2A.X), treatment alone in the absence of doxorubicin: did not induce DSBs on its own
[2]
  retention of intracellular doxorubicin 3 h and 6 h after doxorubicin removal: retained higher levels of intracellular doxorubicin
[3]
  lysosomal accumulation (LysoTracker staining): increased LysoTracker staining
[4]
  cell surface P-gp levels: slightly increased surface P-gp levels
[5]
  intracellular doxorubicin in fibroblasts: did not exhibit strongly increased intracellular doxorubicin
[6]
  cell surface LAMP-1 levels: robustly reduced surface LAMP-1
[7]; 100 ng/ml doxorubicin 48 h, 10 µM vacuolin-1
  doxorubicin accumulation with lysosomal exocytosis inhibitor: promoted doxorubicin accumulation
[8]
  viability of BE(2)-C cells, single treatment: no substantial effect
  viability of BE(2)-C cells, combination with doxorubicin, 24 h, compared to doxorubicin alone: strongly reduced cell viability

## COc1cccc2c1C(=O)c1c(O)c3c(c(O)c1C2=O)C[C@@](O)(C(=O)CO)C[C@@H]3O[C@H]1C[C@H](N)[C@H](O)[C@H](C)O1 [doxorubicin]
[9]
  DSBs in comet assays, single treatment: increased DSBs only trend-wise
[8]
  viability of BE(2)-C cells, single treatment: did not substantially reduce cell viability

## COc1ccc(CCN(C)CCCC(C#N)(c2ccc(OC)c(OC)c2)C(C)C)cc1OC (centres unmarked) [verapamil]
[1]
  DSBs (γH2A.X), treatment alone in the absence of doxorubicin: did not induce DSBs
[5]
  intracellular doxorubicin in fibroblasts: strongly increase doxorubicin accumulation
[7]; 100 ng/ml doxorubicin 24 h, 10 µM verapamil
  basal levels of doxorubicin in cells: increased the basal levels of doxorubicin
[8]; 10 µM verapamil
  viability of BE(2)-C cells, combination with doxorubicin, 48 h, compared to doxorubicin alone: not significant
[8]
  viability of BE(2)-C cells, combination with doxorubicin, 24 h, compared to doxorubicin alone: only slightly reduced cell viability

## CCCCOc1ccc(CC(=O)NO)cc1 [bufexamac]
[2]
  retention of intracellular doxorubicin 3 h and 6 h after doxorubicin removal: retained higher levels of intracellular doxorubicin
[3]
  lysosomal accumulation (LysoTracker staining): caused lysosomal accumulation
[10]
  HDAC6 inhibition (tubulin K40 acetylation): substantially inhibited HDAC6; also recorded: lowest potency against HDAC6
[6]
  cell surface LAMP-1 levels: reduced surface LAMP-1 levels
[7]; 100 ng/ml doxorubicin
  intracellular doxorubicin after co-treatment: increased intracellular doxorubicin
[7]; 12 h pre-treatment with inhibitor, then 1 µg/ml doxorubicin for 3 h
  intracellular doxorubicin levels, short-term: increased intracellular doxorubicin levels

## CN(C)Cc1c(C(=O)NCCOc2ccc(C(=O)NO)cc2)oc2ccccc12 [abexinostat]
[3]; 24 h treatment
  concentrations at which lysosomal accumulation is induced: ≥ 100 nM
[3]; Homo sapiens, 24 h treatment, read-out: LysoTracker staining (lysosomal accumulation) EC50
  EC50: 183 nM
[7]; 100 ng/ml doxorubicin, 24 h co-treatment
  concentrations at which intracellular doxorubicin amounts are increased: greater than or equal to 500 nM

## CCCC(CCC)C(=O)O [VPA, valproic acid]
[11]
  inhibition of HDACs 1–3 (histone H3 acetylation): substantially inhibiting HDACs 1–3
[3]
  lysosomal accumulation (LysoTracker staining): did not induce lysosomal accumulation

## O=C(CCCCCCC(=O)Nc1ccc([C@H]2O[C@@H](CSc3nc(-c4ccccc4)c(-c4ccccc4)o3)C[C@@H](c3ccc(CO)cc3)O2)cc1)NO [tubacin]
[2]
  retention of intracellular doxorubicin 3 h and 6 h after doxorubicin removal: had no effect
[3]
  lysosomal accumulation (LysoTracker staining): did not
[10]
  HDAC6 inhibition (tubulin K40 acetylation): substantially inhibited HDAC6
[7]; 100 ng/ml doxorubicin
  intracellular doxorubicin after co-treatment: did not alter cellular doxorubicin content

— publication PMC6030077, “Dual role of HDAC10 in lysosomal exocytosis and DNA repair promotes neuroblastoma chemoresistance” (Scientific Reports, 2018)
